ChEMBL document CHEMBL1150739, “Plant antitumor agents, 26. Isolation, structure, and antitumor activity of alkaloids from Anopterus glandulosus” (1987)
≈ marks a conversion by molar mass, not a printed value.

Legend:
Format in all cases: functional
P388 [1] = assay: In vivo antitumor activity against mouse P388 cells at 4.4 mg/kg relative to control
KB = assay: Cytotoxicity against human KB cells; conditions: read-out: ED50 (the source's name)
P388 [2] = assay: In vivo antitumor activity against mouse P388 cells at 1.5 mg/kg relative to control
P388 [3] = assay: In vivo antitumor activity against mouse P388 cells at 3.5 mg/kg relative to control
P388 [4] = assay: In vivo antitumor activity against mouse P388 cells at 6 mg/kg relative to control
P388 [5] = assay: In vivo antitumor activity against mouse P388 cells at 13 mg/kg relative to control

SMILES	EC50 (KB)	also measured
C=C1C[C@]23[C@H]4[C@H]1[C@@H](OC(=O)/C(C)=C/C)[C@@H](OC(=O)/C(C)=C/C)[C@H]2[C@@]12C[C@@H](O)C[C@@](C)(CN(C)[C@H]41)[C@@]2(O)[C@@H](O)[C@@H]3O	0.001 µg/mL (≈ 0.00179 µM)	T/C (P388 [1]): 140%
C=C1C[C@]23[C@H]4[C@H]1[C@@H](OC(=O)/C(C)=C/C)[C@@H](OC(=O)c1ccccc1)[C@H]2[C@@]12C[C@@H](O)C[C@@](C)(CN(C)[C@H]41)[C@@]2(O)[C@@H](O)[C@@H]3O	0.001 µg/mL (≈ 0.00173 µM)	T/C (P388 [2]): 125%
C=C1C[C@]23[C@H]4[C@H]1[C@@H](OC(=O)/C(C)=C/C)[C@@H](OC(=O)/C(C)=C/CO)[C@H]2[C@@]12C[C@@H](O)C[C@@](C)(CN(C)[C@H]41)[C@@]2(O)[C@@H](O)[C@@H]3O	0.05 µg/mL (≈ 0.0872 µM)	T/C (P388 [3]): 120%
C=C1C[C@@]23C[C@H](O)[C@]4(O)[C@@]5(C)C[C@H](O)C[C@@]46[C@@H]2[C@H](O)[C@H](OC(=O)/C(C)=C/C)[C@@H]1[C@H]3[C@H]6N(C)C5	1 µg/mL (≈ 2.18 µM)	T/C (P388 [4]): 127%
C=C1C[C@@]23C[C@H](O)[C@]4(O)[C@@]5(C)C[C@H](O)C[C@@]46[C@@H]2[C@H](OC(=O)/C(C)=C/C)[C@H](OC(=O)/C(C)=C/C)[C@@H]1[C@H]3[C@H]6N(C)C5 [ANOPTERINE]	0.05 µg/mL (≈ 0.0923 µM)	T/C (P388 [5]): 122%
